The text below walks through data of paper PMC10382584, “Macrocyclization of linear molecules by deep learning to facilitate macrocyclic drug candidates discovery” (Nature Communications, 2023).

SMILES strings stand for the structures. Values joined by “and” are separate entries in the source; they are usually repeats but may differ in a detail not shown here. Identical values can stand only once. Like-named read-outs stand apart in the source and are kept apart here.

The subject of experiment [1] is JAK2-STAT signaling pathways in HEL cells. The experiment can be described thus: Western blot analysis of JAK2-STAT signaling in HEL cells. The experiment is classed as cell-based, human. To be noted: 0.3-10 μM, 0.5 h; for phosphorylation of JAK2 at Y221 site: dose-dependent. On the procedure: HEL cells were added into six-well plates (2 × 10^6 cells/well) and then put into the incubator (37 °C, 5% CO2). After 24 h, the tested compounds were diluted in RPMI-1640 medium (final DMSO concentration = 0.1%) with different concentrations (0 μM, 0.3 μM, 1 μM, 3 μM, and 10 μM) was added separately into the wells, and incubated for another 0.5 h, then cells were collected and lysed. Proteins from each sample were isolated by SDS-PAGE and transferred to PVDF membrane. The membranes were blocked in 5% milk (TBST) for 1 h at room temperature, and subsequently incubated with the indicated primary antibody in blocking buffer overnight at 4 °C. Primary antibodies were used as follows: p-Y1007/8-JAK2 (#3771, CST, 1:1000), p-Y221-JAK2 (#11150, SAB, 1:500), p-Y705-STAT3 (#11045, SAB, 1:1000), p-Y694-STAT5 (#13386, SAB, 1:2000), STAT3 (10253-2-AP, Proteintech, 1:4000), STAT5 (12071-1-AP, Proteintech, 1:4000), JAK2 (E-AB-70193, Elabscience, 1:2000) and β-Actin (E-AB-20034, Elabscience, 1:10000). Then the membranes were washed with TBST (3 × 5 min), incubated with HRP-conjugated secondary antibody for 1 h at room temperature, washed again, and then exposed by chemiluminescence method using the enhanced ECL immunoblotting system (Tanon, Shanghai, China). All the experiments were repeated in triplicate. Blot bands were quantified by densitometry using Image J software v1.51.
(In general: Immunoblotting shows a protein as a band on a membrane.)

In a further experiment the target is T1, JAK2 (Homo sapiens, UniProt O60674).
T1 construct: 0.05–0.42 ng JAK2, 2 μM peptide substrate (Tyr06)
The experiment can be described thus: JAK2 enzyme assay (Z'-LYTE kinase assay kit). The format is biochemical.

In the next experiment the target is T2, CTK (Homo sapiens, UniProt P42679).
T2 construct: gene MATK
The experiment can be described thus: biochemical. Also noted: DiscoveRx KINOMEscan competition binding, percent of DMSO control signal at 100 nM. To be noted: read-out: Fig. 4a / Percent Control / Compound 1; percent of DMSO control, competition binding.

A further experiment deals with FLT3(ITD,F691L) (Homo sapiens, UniProt P36888, F691L/ITD). The experiment can be described thus: biochemical. Set-up: DiscoveRx KINOMEscan competition binding, percent of DMSO control signal at 100 nM. As to conditions: read-out: Fig. 4a / Percent Control / Compound 1; percent of DMSO control, competition binding.
Another experiment addresses T3, QSK (Homo sapiens, UniProt Q9Y2K2).
T3 construct: gene SIK3
Nature of the experiment: biochemical. Also noted: DiscoveRx KINOMEscan competition binding, percent of DMSO control signal at 100 nM. As to conditions: read-out: Fig. 4a / Percent Control / Compound 1; percent of DMSO control, competition binding.

Experiment [2] addresses T4, JAK3(JH1domain-catalytic) (Homo sapiens, UniProt P52333).
T4 construct: JH1domain-catalytic
The experiment can be described thus: biochemical. Set-up: DiscoveRx KINOMEscan competition binding, percent of DMSO control signal at 100 nM. As to conditions: read-out: Fig. 4a / Percent Control / Compound 1; percent of DMSO control, competition binding.

A further experiment concerns the target CAMK1 (Homo sapiens, UniProt Q14012). The experiment can be described thus: biochemical. Set-up: DiscoveRx KINOMEscan competition binding, percent of DMSO control signal at 100 nM. To be noted: read-out: Fig. 4a / Percent Control / Compound 1; percent of DMSO control, competition binding.
Another experiment concerns the target DYRK1A (Homo sapiens, UniProt Q13627). Nature of the experiment: biochemical. Also noted: DiscoveRx KINOMEscan competition binding, percent of DMSO control signal at 100 nM. To be noted: read-out: Fig. 4a / Percent Control / Compound 1; percent of DMSO control, competition binding.
The target in the next experiment is ROCK2 (Homo sapiens, UniProt O75116). The experiment can be described thus: biochemical. As to conditions: read-out: Fig. 4a / Percent Control / Compound 1; percent of DMSO control, competition binding. Also noted: DiscoveRx KINOMEscan competition binding, percent of DMSO control signal at 100 nM.
The target in another experiment is TLK2 (Homo sapiens, UniProt Q86UE8). Nature of the experiment: biochemical. Also noted: DiscoveRx KINOMEscan competition binding, percent of DMSO control signal at 100 nM. As to conditions: read-out: Fig. 4a / Percent Control / Compound 1; percent of DMSO control, competition binding.
The next experiment addresses T5, LKB1 (Homo sapiens, UniProt Q15831).
T5 construct: gene STK11
The experiment can be described thus: biochemical. Also noted: DiscoveRx KINOMEscan competition binding, percent of DMSO control signal at 100 nM. To be noted: read-out: Fig. 4a / Percent Control / Compound 1; percent of DMSO control, competition binding.

The target of the next experiment is T6, MLK3 (Homo sapiens, UniProt Q16584).
T6 construct: gene MAP3K11
Nature of the experiment: biochemical. Also noted: DiscoveRx KINOMEscan competition binding, percent of DMSO control signal at 100 nM. As to conditions: read-out: Fig. 4a / Percent Control / Compound 1; percent of DMSO control, competition binding.

Another experiment deals with WEE2 (Homo sapiens, UniProt P0C1S8). The experiment can be described thus: biochemical. Set-up: DiscoveRx KINOMEscan competition binding, percent of DMSO control signal at 100 nM. As to conditions: read-out: Fig. 4a / Percent Control / Compound 1; percent of DMSO control, competition binding.
For the next experiment, the target named is ULK1 (Homo sapiens, UniProt O75385). Nature of the experiment: biochemical. Also noted: DiscoveRx KINOMEscan competition binding, percent of DMSO control signal at 100 nM. To be noted: read-out: Fig. 4a / Percent Control / Compound 1; percent of DMSO control, competition binding.
A further experiment concerns the target ACVR2A (Homo sapiens, UniProt P27037). The experiment can be described thus: biochemical. Also noted: DiscoveRx KINOMEscan competition binding, percent of DMSO control signal at 100 nM. As to conditions: read-out: Fig. 4a / Percent Control / Compound 1; percent of DMSO control, competition binding.
Another experiment deals with T7, SIK (Homo sapiens, UniProt P57059).
T7 construct: gene SIK1
Nature of the experiment: biochemical. Set-up: DiscoveRx KINOMEscan competition binding, percent of DMSO control signal at 100 nM. To be noted: read-out: Fig. 4a / Percent Control / Compound 1; percent of DMSO control, competition binding.

Another experiment addresses T8, NDR1 (Homo sapiens, UniProt Q15208).
T8 construct: gene STK38
Nature of the experiment: biochemical. Set-up: DiscoveRx KINOMEscan competition binding, percent of DMSO control signal at 100 nM. As to conditions: read-out: Fig. 4a / Percent Control / Compound 1; percent of DMSO control, competition binding.

The target in another experiment is CASK (Homo sapiens, UniProt O14936). Nature of the experiment: biochemical. Set-up: DiscoveRx KINOMEscan competition binding, percent of DMSO control signal at 100 nM. As to conditions: read-out: Fig. 4a / Percent Control / Compound 1; percent of DMSO control, competition binding.
For a further experiment, the target named is BRSK2 (Homo sapiens, UniProt Q8IWQ3). Nature of the experiment: biochemical. Also noted: DiscoveRx KINOMEscan competition binding, percent of DMSO control signal at 100 nM. As to conditions: read-out: Fig. 4a / Percent Control / Compound 1; percent of DMSO control, competition binding.
Setting [3] is: JAK2, 25 μM ATP, mean ± SD, n = 3, read-out: Enzyme Inhibitory Activity (IC50).
Setting [4] is: JAK2 enzyme, mean of 3 replicates, read-out: IC50/μM mean, enzyme inhibitory activity.
Where [5] appears, read: JAK2 enzyme, mean ± SD of 3 replicates, read-out: IC50/μM mean ± SD, enzyme inhibitory activity.
[6] abbreviates: JAK2 enzyme, single-replicate fits (replicates 1-3), read-out: IC50/μM (individual replicates), enzyme inhibitory activity.

T1 sequence (O60674 whole entry): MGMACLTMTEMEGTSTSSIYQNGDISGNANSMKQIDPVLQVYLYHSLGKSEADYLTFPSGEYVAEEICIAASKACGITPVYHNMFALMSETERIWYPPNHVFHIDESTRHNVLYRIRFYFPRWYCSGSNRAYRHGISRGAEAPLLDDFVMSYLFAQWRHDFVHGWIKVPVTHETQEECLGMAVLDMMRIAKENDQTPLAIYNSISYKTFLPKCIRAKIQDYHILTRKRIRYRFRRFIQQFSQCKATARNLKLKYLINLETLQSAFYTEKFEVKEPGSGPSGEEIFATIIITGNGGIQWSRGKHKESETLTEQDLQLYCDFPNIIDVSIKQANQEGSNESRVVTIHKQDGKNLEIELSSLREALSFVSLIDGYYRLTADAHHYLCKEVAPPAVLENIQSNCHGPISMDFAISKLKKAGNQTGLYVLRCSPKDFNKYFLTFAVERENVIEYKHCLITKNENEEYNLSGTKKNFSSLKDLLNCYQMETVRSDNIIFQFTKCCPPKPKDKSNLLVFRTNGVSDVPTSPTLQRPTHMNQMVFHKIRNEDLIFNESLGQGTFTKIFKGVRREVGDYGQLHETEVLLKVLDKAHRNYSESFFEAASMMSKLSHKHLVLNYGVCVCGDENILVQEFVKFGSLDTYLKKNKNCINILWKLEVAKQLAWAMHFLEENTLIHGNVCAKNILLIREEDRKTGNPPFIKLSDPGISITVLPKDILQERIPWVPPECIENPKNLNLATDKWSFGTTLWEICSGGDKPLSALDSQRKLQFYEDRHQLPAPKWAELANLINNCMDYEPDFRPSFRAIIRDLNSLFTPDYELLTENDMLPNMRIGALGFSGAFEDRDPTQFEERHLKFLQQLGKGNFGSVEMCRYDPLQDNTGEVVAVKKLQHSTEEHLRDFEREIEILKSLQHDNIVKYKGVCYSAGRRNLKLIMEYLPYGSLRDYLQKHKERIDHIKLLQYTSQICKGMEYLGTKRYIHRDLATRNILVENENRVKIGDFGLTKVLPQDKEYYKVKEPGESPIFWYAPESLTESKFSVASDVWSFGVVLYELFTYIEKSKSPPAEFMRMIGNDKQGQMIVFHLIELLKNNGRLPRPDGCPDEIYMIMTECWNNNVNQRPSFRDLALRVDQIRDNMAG
T4 sequence (P52333 whole entry): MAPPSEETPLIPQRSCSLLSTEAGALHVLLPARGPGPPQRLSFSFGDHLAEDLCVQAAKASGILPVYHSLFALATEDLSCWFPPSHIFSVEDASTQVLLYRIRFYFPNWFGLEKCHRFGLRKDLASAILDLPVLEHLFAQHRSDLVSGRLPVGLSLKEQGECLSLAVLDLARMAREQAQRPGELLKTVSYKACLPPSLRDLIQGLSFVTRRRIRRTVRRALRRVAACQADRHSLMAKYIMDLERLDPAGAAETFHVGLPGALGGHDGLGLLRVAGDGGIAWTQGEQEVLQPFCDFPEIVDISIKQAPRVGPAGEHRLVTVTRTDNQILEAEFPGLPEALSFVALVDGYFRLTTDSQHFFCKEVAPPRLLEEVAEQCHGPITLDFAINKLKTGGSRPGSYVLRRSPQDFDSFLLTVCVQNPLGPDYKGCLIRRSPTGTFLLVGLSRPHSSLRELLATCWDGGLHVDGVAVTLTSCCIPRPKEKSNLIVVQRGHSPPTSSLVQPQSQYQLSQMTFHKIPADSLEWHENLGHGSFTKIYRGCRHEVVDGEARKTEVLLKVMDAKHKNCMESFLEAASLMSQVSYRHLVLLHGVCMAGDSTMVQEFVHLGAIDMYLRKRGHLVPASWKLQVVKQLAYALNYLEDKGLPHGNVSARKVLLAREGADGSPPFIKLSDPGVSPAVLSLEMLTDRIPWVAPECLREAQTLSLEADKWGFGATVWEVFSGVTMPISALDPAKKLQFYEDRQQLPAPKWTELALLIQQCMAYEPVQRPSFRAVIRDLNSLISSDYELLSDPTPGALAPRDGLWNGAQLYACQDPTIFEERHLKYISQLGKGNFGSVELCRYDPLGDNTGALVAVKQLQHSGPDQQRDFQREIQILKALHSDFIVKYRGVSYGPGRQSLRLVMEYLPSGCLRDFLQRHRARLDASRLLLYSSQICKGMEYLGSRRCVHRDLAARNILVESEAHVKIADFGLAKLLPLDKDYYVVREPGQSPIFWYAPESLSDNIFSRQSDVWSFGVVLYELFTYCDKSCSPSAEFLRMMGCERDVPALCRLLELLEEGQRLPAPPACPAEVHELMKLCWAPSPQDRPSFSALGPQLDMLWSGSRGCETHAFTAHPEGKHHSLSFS
Chain of ACVR2A (P27037 whole entry): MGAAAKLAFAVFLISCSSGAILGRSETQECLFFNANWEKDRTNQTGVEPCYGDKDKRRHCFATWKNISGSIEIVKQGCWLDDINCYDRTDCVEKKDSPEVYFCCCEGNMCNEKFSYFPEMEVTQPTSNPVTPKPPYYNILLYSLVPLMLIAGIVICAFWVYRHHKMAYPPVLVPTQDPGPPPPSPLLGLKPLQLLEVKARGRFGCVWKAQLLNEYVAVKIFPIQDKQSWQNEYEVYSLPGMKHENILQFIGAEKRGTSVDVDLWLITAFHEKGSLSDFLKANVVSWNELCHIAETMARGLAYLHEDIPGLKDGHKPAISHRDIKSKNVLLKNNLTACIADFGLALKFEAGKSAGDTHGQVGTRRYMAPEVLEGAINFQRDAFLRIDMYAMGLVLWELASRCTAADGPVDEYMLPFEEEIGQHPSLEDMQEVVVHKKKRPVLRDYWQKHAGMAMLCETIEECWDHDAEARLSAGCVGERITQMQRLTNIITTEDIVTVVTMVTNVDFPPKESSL
T7 sequence (P57059 whole entry): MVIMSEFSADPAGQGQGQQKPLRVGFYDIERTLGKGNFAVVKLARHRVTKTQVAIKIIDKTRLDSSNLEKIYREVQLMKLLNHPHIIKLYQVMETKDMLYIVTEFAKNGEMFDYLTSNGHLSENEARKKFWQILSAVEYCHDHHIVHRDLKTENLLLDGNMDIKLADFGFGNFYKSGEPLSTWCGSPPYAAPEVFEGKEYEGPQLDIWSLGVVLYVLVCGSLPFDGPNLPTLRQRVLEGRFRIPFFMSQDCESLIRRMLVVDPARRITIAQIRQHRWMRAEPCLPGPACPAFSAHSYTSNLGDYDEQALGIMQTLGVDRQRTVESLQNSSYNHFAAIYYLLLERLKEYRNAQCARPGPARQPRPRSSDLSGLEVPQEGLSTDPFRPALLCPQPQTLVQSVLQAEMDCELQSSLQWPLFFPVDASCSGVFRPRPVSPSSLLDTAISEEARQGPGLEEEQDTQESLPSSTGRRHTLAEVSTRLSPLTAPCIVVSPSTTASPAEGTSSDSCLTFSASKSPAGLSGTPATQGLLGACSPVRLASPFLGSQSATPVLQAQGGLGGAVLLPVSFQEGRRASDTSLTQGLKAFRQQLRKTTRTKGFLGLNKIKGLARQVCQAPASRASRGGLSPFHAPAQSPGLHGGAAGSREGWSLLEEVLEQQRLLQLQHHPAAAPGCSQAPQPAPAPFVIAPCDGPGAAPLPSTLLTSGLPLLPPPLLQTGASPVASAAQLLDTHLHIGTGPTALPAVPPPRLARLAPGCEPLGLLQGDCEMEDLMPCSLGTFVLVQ
Chain of ROCK2 (O75116 whole entry): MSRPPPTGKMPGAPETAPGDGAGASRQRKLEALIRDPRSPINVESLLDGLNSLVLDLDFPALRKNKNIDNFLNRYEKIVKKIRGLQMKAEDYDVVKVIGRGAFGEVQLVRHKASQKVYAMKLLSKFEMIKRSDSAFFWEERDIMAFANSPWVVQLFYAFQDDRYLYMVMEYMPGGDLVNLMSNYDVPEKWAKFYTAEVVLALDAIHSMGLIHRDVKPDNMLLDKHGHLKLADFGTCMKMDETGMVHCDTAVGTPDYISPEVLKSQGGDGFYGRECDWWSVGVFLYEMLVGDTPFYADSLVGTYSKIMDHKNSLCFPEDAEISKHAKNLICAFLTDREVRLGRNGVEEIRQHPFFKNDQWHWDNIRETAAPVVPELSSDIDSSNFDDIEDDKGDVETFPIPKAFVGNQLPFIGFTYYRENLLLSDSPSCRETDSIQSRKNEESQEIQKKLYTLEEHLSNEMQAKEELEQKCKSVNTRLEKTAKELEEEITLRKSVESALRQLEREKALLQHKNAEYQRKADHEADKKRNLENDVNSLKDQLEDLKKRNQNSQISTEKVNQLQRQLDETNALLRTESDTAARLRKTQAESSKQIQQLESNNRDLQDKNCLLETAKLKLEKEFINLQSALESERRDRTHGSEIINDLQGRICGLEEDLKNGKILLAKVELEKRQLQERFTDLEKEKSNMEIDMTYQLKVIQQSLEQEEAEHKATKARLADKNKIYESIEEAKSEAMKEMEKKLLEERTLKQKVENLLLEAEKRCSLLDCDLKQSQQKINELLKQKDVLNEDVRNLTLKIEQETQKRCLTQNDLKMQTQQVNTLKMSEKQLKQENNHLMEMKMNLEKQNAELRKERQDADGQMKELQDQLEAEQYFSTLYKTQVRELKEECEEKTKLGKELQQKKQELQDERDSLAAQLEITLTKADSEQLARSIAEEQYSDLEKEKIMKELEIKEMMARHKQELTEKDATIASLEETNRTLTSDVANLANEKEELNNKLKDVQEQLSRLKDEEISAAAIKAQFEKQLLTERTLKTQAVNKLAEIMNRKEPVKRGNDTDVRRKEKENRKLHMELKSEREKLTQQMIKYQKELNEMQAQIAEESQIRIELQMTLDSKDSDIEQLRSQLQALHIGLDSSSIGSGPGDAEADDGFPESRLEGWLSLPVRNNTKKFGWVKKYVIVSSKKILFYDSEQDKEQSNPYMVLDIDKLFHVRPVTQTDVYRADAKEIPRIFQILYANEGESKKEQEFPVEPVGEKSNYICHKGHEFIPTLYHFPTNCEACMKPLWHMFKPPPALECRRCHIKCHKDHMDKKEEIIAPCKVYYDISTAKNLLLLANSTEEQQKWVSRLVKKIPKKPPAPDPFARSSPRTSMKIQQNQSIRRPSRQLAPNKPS

For `Cc1cnc2nc1Nc1cccc(c1)COCC=CCOCc1cc(ccc1OCCN1CCCC1)N2` [Compound 3], the “activation of downstream signaling molecule STAT3 and STAT5” value in experiment [1] is given as “significantly inhibited”. In addition, the “phosphorylation of JAK2 at Y1007/8 site” value in [1] was “increased”. The “phosphorylation of JAK2 at Y221 site” value in experiment [1] is “efficiently blocked”. The IC50 on JAK2 (setting [3]) was 0.006 µM; at JAK2 (setting [4]), 0.006 µM; on JAK2 (setting [5]), 0.006 ± 0.001 µM; on JAK2 (setting [6]), 0.00662 µM and 0.00532 µM and 0.00569 µM.
Regarding `Cc1cnc2nc1Nc1cccc(c1)COCc1cc(ccc1OCCN1CCCC1)N2` [Compound 1], the remaining binding at 0.1 µM on CTK came to 97%; on FLT3(ITD,F691L), 0%; on QSK, 63%; in experiment [2], 12%; at CAMK1, 92%; at DYRK1A, 88%. Further, the remaining binding at 0.1 µM at ROCK2 is 83%; on TLK2, 100%; at LKB1, 100%; on MLK3 it was 94%; on WEE2, 78%; on ULK1, 52%. Further, the remaining binding at 0.1 µM came out at 99% at ACVR2A; 100% on SIK; 87% on NDR1; 73% on CASK; 94% at BRSK2. Besides, the “activation of downstream signaling molecule STAT3 and STAT5” value in experiment [1] is “significantly inhibited”. Moreover, in experiment [1], the “phosphorylation of JAK2 at Y1007/8 site” value is “increased”. Moreover, the “phosphorylation of JAK2 at Y221 site” value in experiment [1] is “efficiently blocked”. Further, the IC50 on JAK2 (setting [3]) was 0.07 µM; at JAK2 (setting [4]) it was 0.07 µM; at JAK2 (setting [5]), 0.07 ± 0.006 µM; at JAK2 (setting [6]), 0.072 µM and 0.064 µM and 0.075 µM.
